Source: patent US20190047966A1, “NOVEL COMPOUND AND PHARMACOLOGICALLY ACCEPTABLE SALT THEREOF” (MEIJI SEIKA PHARMA CO., LTD., priority 2016, published 2019)

Experiments:
[1] = molecular target: human histamine H1 receptor (Homo sapiens, UniProt P35367); assay: Evaluation of Human H1 Receptor Affinity ([3H]pyrilamine binding); set-up: purchased PerkinElmer Inc; host or cells: CHO-K1; conditions: inhibition constant Ki, CHO-K1 membrane preparation
Method in brief: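 Ki values are Cheng-Prusoff conversions of IC50 (Kd 1.1 nM) from radioligand displacement of 1.2 nM [3H]pyrilamine, with 1.0 μM pyrilamine defining nonspecific binding.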

[2] = molecular target: T1, human histamine H4 receptor (Homo sapiens, UniProt Q9H3N8); assay: Evaluation of Human H4 Receptor Affinity ([3H]histamine binding); conditions: inhibition constant Ki, CHO-K1 membrane preparation, read-out: Evaluation of H4 Receptor Affinity
T1 construct: purchased PerkinElmer Inc; host or cells: CHO-K1
T1 sequence (Q9H3N8 whole entry): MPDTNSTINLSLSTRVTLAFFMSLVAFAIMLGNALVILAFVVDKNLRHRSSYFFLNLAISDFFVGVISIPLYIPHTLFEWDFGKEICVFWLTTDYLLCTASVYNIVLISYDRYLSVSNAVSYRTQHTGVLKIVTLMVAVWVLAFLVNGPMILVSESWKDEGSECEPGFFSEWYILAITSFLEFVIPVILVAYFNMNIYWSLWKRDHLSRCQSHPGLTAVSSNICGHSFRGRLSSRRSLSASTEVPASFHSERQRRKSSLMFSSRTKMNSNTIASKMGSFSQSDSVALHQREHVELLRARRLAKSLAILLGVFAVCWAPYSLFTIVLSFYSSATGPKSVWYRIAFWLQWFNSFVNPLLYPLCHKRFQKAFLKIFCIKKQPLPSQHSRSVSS
Method in brief: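 Membranes from CHO-K1 cells expressing human H4 receptor incubated with 8.2 nM [3H]histamine and compound for 90 min at 25 °C in 50 mM Tris-HCl pH 7.4, 1.25 mM EDTA, then filtered and counted. Nonspecific binding defined with 1.0 μM histamine; Ki from IC50 by Cheng-Prusoff using Kd 5.7 nM.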

Chain of human histamine H1 receptor (P35367 whole entry): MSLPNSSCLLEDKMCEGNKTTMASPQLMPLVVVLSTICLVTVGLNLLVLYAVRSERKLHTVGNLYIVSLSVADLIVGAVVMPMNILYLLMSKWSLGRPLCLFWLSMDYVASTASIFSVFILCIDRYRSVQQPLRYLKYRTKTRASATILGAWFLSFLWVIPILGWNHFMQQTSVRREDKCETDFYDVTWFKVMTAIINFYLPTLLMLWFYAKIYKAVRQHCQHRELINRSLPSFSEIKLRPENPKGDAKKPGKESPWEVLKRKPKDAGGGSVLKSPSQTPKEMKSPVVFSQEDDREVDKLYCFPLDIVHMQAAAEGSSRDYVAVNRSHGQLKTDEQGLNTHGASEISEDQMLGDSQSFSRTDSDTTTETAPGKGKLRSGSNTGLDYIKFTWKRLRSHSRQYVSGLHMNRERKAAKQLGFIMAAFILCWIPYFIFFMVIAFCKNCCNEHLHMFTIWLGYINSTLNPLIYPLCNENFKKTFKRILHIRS

| Compound | Ki [1] | Ki [2] |
| --- | --- | --- |
| Nc1nc2c(c(N3CCN(CCO[C@H]4C[C@@H](C(=O)O)C4)CC3)n1)CCc1cc(OCc3ccc(OC(F)(F)F)cc3F)ccc1-2 [Example 205, cis-3-(2-(4-(2-amino-8-((2-fluoro-4-(trifluoromethoxy)benzyl)oxy)-5,6-dihydrobenzo[h]quinazolin-4-yl)piperazin-1-yl)ethoxy)cyclobutane-1-carboxylic acid] | < 100 nM | < 100 nM |
| Nc1nc2c(c(N3CCN(CCO[C@H]4C[C@@H](C(=O)O)C4)CC3)n1)CCc1cc(OCc3ccc(OC(F)(F)F)c(F)c3)ccc1-2 [Example 206, cis-3-(2-(4-(2-amino-8-((3-fluoro-4-(trifluoromethoxy)benzyl)oxy)-5,6-dihydrobenzo[h]quinazolin-4-yl)piperazin-1-yl)ethoxy)cyclobutane-1-carboxylic acid] | < 100 nM | < 100 nM |
| COc1cc(OC(F)(F)F)ccc1COc1ccc2c(c1)CCc1c-2nc(N)nc1N1CCN(CCO[C@H]2C[C@@H](C(=O)O)C2)CC1 [Example 207, cis-3-(2-(4-(2-amino-8-((2-methoxy-4-(trifluoromethoxy)benzyl)oxy)-5,6-dihydrobenzo[h]quinazolin-4-yl)piperazin-1-yl)ethoxy)cyclobutane-1-carboxylic acid] | < 100 nM | < 100 nM |
| Cc1cc(OC(F)(F)F)ccc1COc1ccc2c(c1)CCc1c-2nc(N)nc1N1CCN(CCO[C@H]2C[C@@H](C(=O)O)C2)CC1 [Example 208, cis-3-(2-(4-(2-amino-8-((2-methyl-4-(trifluoromethoxy)benzyl)oxy)-5,6-dihydrobenzo[h]quinazolin-4-yl)piperazin-1-yl)ethoxy)cyclobutane-1-carboxylic acid] | < 100 nM | < 100 nM |
| Nc1nc2c(c(N3CCN(CCO[C@H]4C[C@@H](C(=O)O)C4)CC3)n1)CCc1cc(OCc3ccc(OC(F)F)cc3)ccc1-2 [Example 210, cis-3-(2-(4-(2-amino-8-((4-(difluoromethoxy)benzyl)oxy)-5,6-dihydrobenzo[h]quinazolin-4-yl)piperazin-1-yl)ethoxy)cyclobutane-1-carboxylic acid] | < 100 nM | < 100 nM |
| Nc1nc2c(c(N3CCN(CCO[C@H]4C[C@@H](C(=O)O)C4)CC3)n1)CCc1cc(OCc3ccc(SC(F)(F)F)cc3)ccc1-2 [Example 211] | < 100 nM | < 100 nM |
| Nc1nc2c(c(N3CCN(CCO[C@H]4C[C@@H](C(=O)O)C4)CC3)n1)CCc1cc(OCc3ccc(S(=O)(=O)C(F)(F)F)cc3)ccc1-2 [Example 212, cis-3-(2-(4-(2-amino-8-((4-((trifluoromethyl)sulfonyl)benzyl)oxy)-5,6-dihydrobenzo[h]quinazolin-4-yl)piperazin-1-yl)ethoxy)cyclobutane-l-carboxylic acid] | < 100 nM | < 100 nM |
| cis-3-(2-(4-(2-amino-8-((4-((trifluoromethyl)cyclohexyl)methoxy)-5,6-dihydrobenzo[h]quinazolin-4-yl)piperazin-1-yl)ethoxy)cyclobutane-l-carboxylic acid [Example 215] | < 100 nM | 100 to 500 nM |
| cis-3-(2-(4-(2-amino-8-((4-cyclopropylbenzyl)oxy)-5,6-dihydrobenzo[h]quinazolin-4-yl)piperazin-1-yl)ethoxy)cyclobutane-l-carboxylic acid [Example 214] | < 100 nM | < 100 nM |
| trans-4-((2-(4-(2-amino-8-((4-cyanobenzyl)oxy)-5,6-dihydrobenzo[h]quinazolin-4-yl)piperazin-1-yl)ethoxy)cyclohexane-l-carboxylic acid [Example 213] | < 100 nM | 100 to 500 nM |
